Entries after “also recorded” stand apart in the source; their conditions may differ. Where two headings read alike, the source gives them in different places.
What was measured:
(Na^++K^+)-ATPase [1] = experiment: Immunofluorescent staining of antibody in rat cardiac myocytes and CV-1 cells; type: binding, rat; African green monkey; settings: for competition with the Jianye-2 antibody binding site (Jianye-2 antibody staining in presence of competitor): 1 mM ouabain or strophanthidin
Source text: FIG. 1 (which includes FIGS. 1A through 1F) are photographs showing the immunofluorescent staining of Jianye-2 antibody in rat cardiac myocytes and African green monkey CV-1 cells, FIGS. 1A-1B are photographs of the confocal image of rat cardiac myocytes in the presence of Jianye-2 (FIG. 1A) or with both Jianye-2 antibody and peptide blocker (FIG. 1B). […] FIG. 1D is a photograph of a single CV-1 cell image at 3000× FIGS. 1E-1F are photographs showing Jianye-2 antibody staining in the presence of either 1 mM ouabain (FIG. 1E) or strophanthidin (FIG. 1F).
Confocal image of rat cardiac myocytes in the presence of Jianye-2, shown in FIG. 1A or with both Jianye-2 antibody and peptide blocker (FIG. 1B). […] Jianye-2 antibody staining in the presence of either 1 mM ouabain (FIG. 1E) or strophanthidin (FIG. 1F). […] Time runs from left to right. […] Columns B, C, D show the results obtained 10, 20, 30 min after administration of either buffer (upper panel) or Jianye-2 antibody (lower panel, 85 nM). Enzyme activity was monitored in cell homogenates under the same experimental condition. […] The data represent a mean of 12 independent experiments. […] The data represent a mean of four independent experiments.

heart failure rats = experiment: Immunization with KX-1 peptide vaccine in heart failure rat model (echocardiography); type: in vivo; settings: peptide injected as vaccine, TiterMax Gold adjuvant, vs control heart failure rat without immunization
Description: FIG. 9 is a graph showing the effect of immunization with KX-1 on the rat cardiac heart failure function. The peptide DVEDSYGQQWTYEQR (SEQ ID NO: 2) was injected into the animal as a vaccine to reduce the rate of progression of heart failure in the heart failure rat model. TiterMax Gold was used as an adjuvant throughout the experiment.
Echocardiography (Echo) uses sound waves to form a picture of the heart valves and heart muscle. The Echo machine sends sound waves to a transducer (a sound sensitive instrument) that is placed on the animal's chest. The sound waves are reflected by the heart was (muscle) and heart valves and back to the transducer, which changes the sound into a picture. Gel is applied on the rat chest and a transducer is placed over the heart area. Heart structures are examined by changing the direction of the transducer. The sound waves cause no discomfort. Thus, an Echo detects the changes and provides information about heart chamber size, wall motion, valve movements, and structural changes in and around the heart.

rat ventricular myocytes = experiment: Measurement of cell contraction in isolated rat ventricular myocytes; type: cell-based
Description: Ventricular cardiac myocytes were isolated from adult Sprague-Dawley rats (2-3 months old; weight 225-300 g) using standard enzymatic techniques. Briefly, following anesthesia (sodium pentobarbital, 100 mg/kg), the heart was quickly removed from the chest and aortic perfused at constant pressure (100 cmH2O) at 37° C. for 3 minutes with a Ca^2+-free bicarbonate-based buffer containing 120 mM NaCl, 5.4 mM MgSO4, 1.2 mM NaH2PO4, 5.6 mM glucose, 20 mM NaHCO3, and 5 mM taurine, in the presence of O2 (95%)-CO2 (5%). The enzymatic digestion was initiated by adding collagenase (Worthington Type II, 1 mg/ml) to the perfusion solution. Calcium (50 µM) was added to the enzyme solution when the heart became swollen. About 7 minutes later, the left ventricle was quickly removed, cut into several pieces, and further digested on a shaker (60-70 rpm) for 10 minutes in the same enzyme solution. The supernatant containing the dispersed myocytes was filtered into a test tube and gently centrifuged at 500 rpm for 1 minute. […]
Cardiac myocytes were isolated from wild-type adult Sprague-Dawley rats, using a standard enzymatic method described previously (Xu, K. Y., et al., (2002) BBRC, 289:167-172). […] Cell length was monitored from the bright-field image (650 nm to 750 nm red light illumination) by an optical edge-tracking method using a photodiode array (model 1024 SAQ, Reticon) with a 3-ms time resolution. […]

(Na^++K^+)-ATPase [2] = target: T1, (Na^++K^+)-ATPase (Rattus norvegicus, UniProt P06685); experiment: Determination of (Na^++K^+)-ATPase activity; type: biochemical; settings: monitored in cell homogenates under the same experimental condition as contraction
T1 construct: Rat cardiac sarcolemmal (SL) vesicles were isolated from rat heart muscle by sucrose flotation method; from tissue; host or cells: rat heart muscle (sarcolemmal vesicles, SDS treatment and sucrose gradient)

rat cardiac myocytes = experiment: Measurement of intracellular Ca2+ transients; type: cell-based; settings: rat heart cells; mean of 12 independent experiments
Description: Rat cardiac myocytes were loaded with 50 µg of a cell permeable fluorescent Ca.2+ probe, Indo-1/acetoxymethyl-ester (Indo-1/AM, Molecular Probes, Inc., Eugene, Oreg.) for 10 min and then resuspended in HEPES-buffered solution in the presence of 1 mM Ca.2+ and stored in the dark at room temperature for 60 min before be utilized for the experiments. The Indo-1 loaded cells were placed on the stage of a modified inverted microscope (model IM-35; Carl Zeiss, Inc., Thornwood, N.Y.) equipped for simultaneous recording of Indo-1 fluorescence and cell length. Cells were electrically paced at 0.5 Hz at room temperature and the excitation wavelength was selected by a 350-nm interference filter (bandwidth 10 nm; Oriel Corp., Stratford, Conn.). The ratio of emission intensity at 410 nm to that at 490 nm was computed offline as an index of intracellular Ca.2+ (Cai^2+) transient. The peak amplitude of the transient is defined as the difference of the 410:490 fluorescence ratio before and after electrical stimulation with or without antibody.

[3] = system: mouse heart left ventricle; experiment: Measurement of mice cardiac contraction in vivo (pressure-volume catheter)
Description: Male wild-type mice (CD1, Charles River, 32-40 g) were utilized for this study. Mice In vivo cardiac functions were assessed by pressure-volume catheter in anesthetized mice. Briefly, mice were induced with 5% isofluorane, anesthetized with an intraperitoneal injection of urethane (300-500 mg/kg), etomidate (5 mg/kg) and morphine (0.5 mg kg-1), and intubated with a blunt 19 G needle inserted via tracheostomy. […] Ventilation was initiated with 100% oxygen using a custom-designed, constant flow ventilator delivering a tidal volume of […] at 120 breaths per min. The left external jugular vein was cannulated with a 30 G needle connected to an infusion pump. Modest volume expansion was provided (150 µL of 12.5% human albumin) at 50 µL/min. Following stabilization, a lateral incision was made at the xyphoid cartilage to expose the left ventricular (LV) apex. The 1.4F pressure-volume catheter (SPR-839, Millar Instruments Inc., Houston, Tex., USA) was inserted via an apical needle puncture with a 26 G needle, and advanced along the cardiac long axis. A 2F pacing catheter (NuMed, Nicholville, N.Y., USA) was placed in the esophagus, dorsal to the left atrium. Atrium was paced using 5-7 V, 2 ms pulses (SD25, Grass Instruments, Quincy, Mass., USA). Calibration of the volume signal was performed using a 5-10 µL bolus of 30% hypertonic saline injected into the jugular vein to determine the signal offset and ultrasound flow probe (AT01RB, Transonic Systems Inc.) placed around the thoracic aorta to determine signal gain. Data were digitized at 2 kHz and stored to disk for off line analysis.
Mice cardiac atria pacing were maintained at constant beating (600 beats/min). The hearts were infused with PBS (5 µl/min) for 10 min prior for administration of SSA78 infusion (5 µl/min) for 30 minutes and following by 10 min PBS washout at 5 µl/min. […] Steady-state indices were derived from 10 consecutive averaged beats. Cardiac preload was indexed as the left ventricular end-diastolic volume (EDV) and end-diastolic pressure (EDP). Cardiac afterload was evaluated as effective arterial elastance (Ea; ratio of LV systolic pressure to stroke volume). This parameter is not preload dependent and had been validated to closely approximate total afterload, which incorporates systemic vascular resistance, aortic impedance, and the reflected wave properties of the vasculature. Myocardial contractility was indexed by cardiac output (CO), dPdt max, dPdt max normalized to instantaneous developed pressure (dPdt max/IP), the load-independent end-systolic pressure-volume relationship (Ees) and preload recruitable stroke work (PRSW). Diastolic perform performance was measured by dPdt min and the time constant of ventricular relaxation.

C[C@@H]1O[C@@H](O[C@H]2C[C@@H](O)[C@]3(CO)[C@H]4[C@H](O)C[C@]5(C)[C@@H](C6=CC(=O)OC6)CC[C@]5(O)[C@@H]4CC[C@]3(O)C2)[C@H](O)[C@H](O)[C@H]1O [ouabain, reference compound]
competition with the Jianye-2 antibody binding site (Jianye-2 antibody staining in presence of competitor) ((Na^++K^+)-ATPase [1]): compete with the Jianye-2 antibody binding site

C[C@]12CC[C@H]3[C@@H](CC[C@]4(O)C[C@@H](O)CC[C@]34C=O)[C@@]1(O)CC[C@@H]2C1=CC(=O)OC1 [strophanthidin, reference compound]
competition with the Jianye-2 antibody binding site (Jianye-2 antibody staining in presence of competitor) ((Na^++K^+)-ATPase [1]): compete with the Jianye-2 antibody binding site

DVEDSYGQQWTYEQR [peptide of the H7-H8 domain of (Na++K+)-ATPase alpha-subunit, injected as vaccine to generate endogenous KX-1 antibody]
rate of progression of heart failure (cardiac function) (heart failure rats): significantly decreased the progression of heart failure; also recorded: significantly delayed the rate of the progression of heart failure

Jianye-2 antibody: polyclonal rabbit IgG recognizing the RSATEEEPPNDD (SEQ ID NO: 1) peptide (H1-H2 domain) of the alpha-subunit of (Na++K+)-ATPase
binding to the (Na++K+)-ATPase on the surface of the cell membrane (immunofluorescent staining) ((Na^++K^+)-ATPase [1]; rat cardiac myocytes and African green monkey CV-1 cells): specifically binds; also recorded: binds to its antigenic site | rat heart cell contraction (time course) (rat ventricular myocytes; 85 nM antibody, 10, 20, 30 min after administration, vs buffer): enhanced rat heart cell contraction | EC50 (rat ventricular myocytes; dose-dependent contractile response in rat ventricular myocytes, mean of four independent experiments, read-out: half maximal contractile response (EC50)): 35 nM | (Na++K+)-ATPase activity ((Na^++K^+)-ATPase [2]): without inhibiting | intracellular Ca2+ (rat cardiac myocytes): markedly increased | first order rate constant of increase in mouse heart contraction [3]: 1.06 %/min | first order rate constant of increase in mouse heart contraction ([3]; 3.4 µM antibody): 1.06 %/min | mouse heart contraction, percent of background control (0 min as 100%) ([3]; 3.4 µM antibody, 5 min): 108(.+−.5.3) % | mouse heart contraction, percent of background control (0 min as 100%) ([3]; 3.4 µM antibody, 10 min): 113(.+−.7) % | mouse heart contraction, percent of background control (0 min as 100%) ([3]; 3.4 µM antibody, 15 min): 116(.+−.10) % | mouse heart contraction, percent of background control (0 min as 100%) ([3]; 3.4 µM antibody, 20 min): 122(.+−.9.0) % | first order rate constant of increase in mouse heart contraction ([3]; 6.0 µM antibody): 2.16 %/min | mouse heart contraction, percent of background control (0 min as 100%) ([3]; 6.0 µM antibody, 5 min): 115(.+−.9.0) % | mouse heart contraction, percent of background control (0 min as 100%) ([3]; 6.0 µM antibody, 10 min): 127(.+−.21) % | mouse heart contraction, percent of background control (0 min as 100%) ([3]; 6.0 µM antibody, 15 min): 137(.+−.16) % | mouse heart contraction, percent of background control (0 min as 100%) ([3]; 6.0 µM antibody, 20 min): 143(.+−.30) % | first order rate constant of increase in mouse heart contraction ([3]; 6.0 mM antibody): 2.16 %/min | mouse heart contraction, percent of background control (0 min as 100%) ([3]; 6.0 mM antibody, 5 min): 115(.+−.9.0) % | mouse heart contraction, percent of background control (0 min as 100%) ([3]; 6.0 mM antibody, 10 min): 127(.+−.21) % | mouse heart contraction, percent of background control (0 min as 100%) ([3]; 6.0 mM antibody, 15 min): 137(.+−.16) % | mouse heart contraction, percent of background control (0 min as 100%) ([3]; 6.0 mM antibody, 20 min): 143(.+−.30) % | mouse heart contraction, percent of background control (0 min as 100%) ([3]; 5 min): 108(.+−.5.3) % | mouse heart contraction, percent of background control (0 min as 100%) ([3]; 10 min): 113(.+−.7) % | mouse heart contraction, percent of background control (0 min as 100%) ([3]; 15 min): 116(.+−.10) % | mouse heart contraction, percent of background control (0 min as 100%) ([3]; 20 min): 122(.+−.9.0) % | positive inotropic effect (ventricular pressure-volume loops) ([3]; normal mouse heart left ventricle, 6.0 µM in PBS, pH 7.2, total 150 ml at 5 ml/min): dramatically induced a reversible positive inotropic effect
